Entries after “also recorded” stand apart in the source; their conditions may differ.

Five compounds from patent publication US11262348B2, “Cell-based assays for detection of antibodies or other factors that neutralize uptake of lysosomal enzymes” (BIOMARIN PHARMACEUTICAL INC., priority 2015, dated 2022) can be followed below.

For assay [1], the system named is Jurkat cells. Kind of assay: Cell-based flow cytometry assay of Alexa488-rhGALNS uptake (screening assay, % SI). Also on record: species or system human. As for the experimental part: Cell uptake of rhGALNS is measured using flow cytometry to determine the amount of fluorophore-conjugated rhGALNS taken up by Jurkat cells. Jurkat cells are a non-adherent human T cell line that express CI-MPR, which binds and targets rhGALNS to the lysosome. rhGALNS neutralizing antibodies (NAb) are detected in samples by a decrease in fluorophore-conjugated rhGALNS uptake (calculated as % inhibition) that exceeds the screening cut point (SCP).
For a 1:1 dilution, 60 μL per well of controls were added in duplicate or in quadruplicate for 2 sets into the appropriate wells. Similarly, for a 1:1 dilution of sample, 60 μL per well of patient screening samples were added into the appropriate wells. For a 1:1 dilution for the confirmation assay, 60 μL per well of patient confirmation samples were added in duplicate into the corresponding wells. The plate was covered, wrapped in foil and allowed to incubate overnight for 14 to 20 hours at 2-8° C.
Assay: Prior to the sample incubation step, the cell plates were removed from the CO2 incubator and observed to ensure the cells were healthy and viable. […] After the incubation was completed, the cells were washed in PBS by centrifuging the plate for 6 min at 310×g in a tabletop centrifuge at 14 to 18° C., repeated two to five times as appropriate. After the last wash, the plate was removed from the centrifuge, the cell pellet resuspended in 100 μL viability stain (red fluorescent reactive dye 1:1000 dilution) and tested for viability. Once viability testing was complete, the cells were centrifuged 6 min at 310×g in a tabletop centrifuge at 14 to 18° C.
Percent Signal Inhibition (% SI) is calculated as [% SI=1—mean median fluorescence intensity (MFI) of sample/mean MFI of control×100]. Confirmatory assay data were analyzed as recovery ratio, defined as mean confirmatory assay MFI of sample/mean screening assay MFI of sample. The titer was calculated as the interpolated dilution factor at which the sample crossed the titer cut point determined by linear regression analysis (Microsoft Excel).
On the technique in general: Flow cytometry measures light scatter and fluorescence of single cells or particles in a stream.

For assay [2], the system named is Jurkat cells. Kind of assay: Flow cytometry uptake of labeled GAA with IGF-II tag. It counts as cell-based, human. As to conditions: for inhibition of rhGAA-IGF-II uptake (in words): Jurkat cells (Jurkat and HepG2 not distinguished); for inhibition of uptake: rhGAA-IGF-II uptake into Jurkat cells. The protocol:
The assay was also validated for a CI-MPR ligand that is not mannose-6 phosphate. The ability of CI-MPR expressing Jurkat or HepG2 cells were analyzed by flow cytometry for their ability to take up labeled GAA comprising an IGF-II tag, which facilitates binding to the CI-MPR. […] This uptake was inhibited by unlabeled GAA as well as anti-IGFII antibody.

As usually defined, the IC50 is the concentration at which inhibition is half-maximal. A high value points to weaker potency in that assay. On to `O=C[C@@H](O)[C@@H](O)[C@H](O)[C@H](O)COP(=O)(O)O` [M6P, mannose-6-phosphate, reference compound], for which the “inhibition of rhGALNS uptake into Jurkat cells (in words)” value with Jurkat cells [1] is given as “dose dependent effect; also recorded: dose dependently abrogated; also recorded: completely blocked”. Moreover, the “inhibition of rhGALNS uptake” value in the assay with Jurkat cells [1] (0.5M M6P) is reported as “approximately 32%”; in the assay with Jurkat cells [1] (5M M6P), “approximately 96%”. The compound further displayed an IC50 with Jurkat cells [1] (Homo sapiens, Jurkat cells) of 453 µM. Moreover, the “inhibition of rhGAA-IGF-II uptake (in words)” value in the assay with Jurkat cells [2] is recorded as “partial inhibition”.

For the compound `C=C1[C@@H](C)[C@H]2[C@H](Cc3ccccc3)NC(=O)[C@]23OC(=O)/C=C/[C@H](O)CCC[C@@H](C)C/C=C/[C@H]3[C@@H]1O` [cytochalasin B, reference compound], the “MFI signal emitted from Alexa488-rhGALNS-treated cells” value with Jurkat cells [1] (374 μM cytochalasin B, pretreated 1 hour) is reported as 777±4.2.

Turning to `Cc1cc(-c2ccc(/N=N/c3c(S(=O)(=O)O)cc4cc(S(=O)(=O)O)cc(N)c4c3O)c(C)c2)ccc1/N=N/c1c(S(=O)(=O)O)cc2cc(S(=O)(=O)O)cc(N)c2c1O` [trypan blue, reference compound], in the assay with Jurkat cells [1] (increasing concentrations of trypan blue), the “fluorescence of cells treated with Alexa488-labeled anti-CD3” value is listed as “reduced”. Also, the “impact on Alexa488-rhGALNS MFI values” in the assay on Jurkat cells [1] (trypan blue up to 0.4%) is listed as “no impact”.

For “IGF-II: CI-MPR ligand tested as a possible neutralizing factor”, in the assay on Jurkat cells [1], the “inhibition of rhGALNS uptake into Jurkat cells (in words)” value is “partial inhibition”. Further, the values for the inhibition of uptake entry in the assay with Jurkat cells [2] (0.6M excess IGF-II) and in the assay with Jurkat cells [2] (50M excess IGF-II) were “approximately 58%” and “approximately 95%”, respectively. For the same compound, in the assay on Jurkat cells [2], the “inhibition of rhGAA-IGF-II uptake (in words)” value is listed as “dose dependent effect”.

As for “unlabeled GAA: unlabeled acid alpha glucosidase used as a competitor of GAA-IGFII uptake”, the “inhibition of rhGAA-IGF-II uptake (in words)” value in the assay on Jurkat cells [2] is “inhibited”.
